These molecules were tested against HIV-1 RT wild-type enzyme (Human immunodeficiency virus type 1 group M subtype B (isolate HXB2) (HIV-1), UniProt P04585) (assay: HIV-1 reverse transcriptase inhibitory activity (RT polymerase assay)). Conditions: HIV-1 RT wild-type enzyme 83 pM; RNA-dependent DNA polymerase activity; read-out: IC50.
Assay type: biochemical
Outline: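 Enzyme and compound were preincubated 30 min at room temperature, then RNA/DNA hybrid (16.6 nM final; HCV-derived RNA, biotinylated primer) plus 2 μM dNTPs and 66.6 nM Ru-dUTP added, 90 min at 37 °C. Avidin capture and ECL counting; percent inhibition relative to DMSO (0%) and 1 μM efavirenz (100%), four-parameter IC50 fit.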

Row | SMILES | IC50 [nM]
1 | N#Cc1cc(Cl)cc(Oc2c(C(F)(F)F)ncn(Cc3cc(-c4cccnc4F)c(=O)[nH]n3)c2=O)c1 [Example 87, 3-chloro-5-((1-((5-(2-fluoropyridin-3-yl)-6-oxo-1,6-dihydropyridazin-3-yl)methyl)-6-oxo-4-(trifluoromethyl)-1,6-dihydropyrimidin-5-yl)oxy)benzonitrile] | 18
2 | N#Cc1cc(Cl)cc(Oc2c(C(F)(F)F)ncn(Cc3cc(-c4cnc5ccccc5c4)c(=O)[nH]n3)c2=O)c1 [Example 88, 3-chloro-5-((6-oxo-1-((6-oxo-5-(quinolin-3-yl)-1,6-dihydropyridazin-3-yl)methyl)-4-(trifluoromethyl)-1,6-dihydropyrimidin-5-yl)oxy)benzonitrile] | 17
3 | N#Cc1cc(Cl)cc(Oc2c(C(F)(F)F)ncn(Cc3cc(-c4ccc(C(N)C(F)(F)F)cc4)c(=O)[nH]n3)c2=O)c1 (stereo not drawn) [Example 89, 3-((1-((5-(4-(1-amino-2,2,2-trifluoroethyl)phenyl)-6-oxo-1,6-dihydropyridazin-3-yl)methyl)-6-oxo-4-(trifluoromethyl)-1,6-dihydropyrimidin-5-yl)oxy)-5-chlorobenzonitrile] | 18
4 | N#Cc1cc(Cl)cc(Oc2c(C(F)(F)F)ncn(Cc3cc(Br)c(=O)[nH]n3)c2=O)c1 [Example 90, 3-((1-((5-bromo-6-oxo-1,6-dihydropyridazin-3-yl)methyl)-6-oxo-4-(trifluoromethyl)-1,6-dihydropyrimidin-5-yl)oxy)-5-chlorobenzonitrile] | 6
5 | N#Cc1cc(Cl)cc(Oc2c(C(F)(F)F)ncn(Cc3cc(Cl)c(=O)[nH]n3)c2=O)c1 [Example 91, 3-chloro-5-((1-((5-chloro-6-oxo-1,6-dihydropyridazin-3-yl)methyl)-6-oxo-4-(trifluoromethyl)-1,6-dihydropyrimidin-5-yl)oxy)benzonitrile] | 6
6 | CN(C)c1cc(Cn2cnc(C(F)(F)F)c(Oc3cc(Cl)cc(C#N)c3)c2=O)n[nH]c1=O [Example 92, 3-chloro-5-((1-((5-(dimethylamino)-6-oxo-1,6-dihydropyridazin-3-yl)methyl)-6-oxo-4-(trifluoromethyl)-1,6-dihydropyrimidin-5-yl)oxy)benzonitrile] | 6
7 | N#Cc1cc(Cl)cc(Oc2c(C(F)(F)F)ncn(Cc3cc(-n4cccn4)c(=O)[nH]n3)c2=O)c1 [Example 93, 3-chloro-5-((6-oxo-1-((6-oxo-5-(1H-pyrazol-1-yl)-1,6-dihydropyridazin-3-yl)methyl)-4-(trifluoromethyl)-1,6-dihydropyrimidin-5-yl)oxy)benzonitrile] | 11
8 | N#Cc1cc(Cl)cc(Oc2c(C(F)(F)F)ncn(Cc3cc(-n4ccnn4)c(=O)[nH]n3)c2=O)c1 [Example 94, 3-chloro-5-((6-oxo-1-((6-oxo-5-(1H-1,2,3-triazol-1-yl)-1,6-dihydropyridazin-3-yl)methyl)-4-(trifluoromethyl)-1,6-dihydropyrimidin-5-yl)oxy)benzonitrile] | 48
9 | N#Cc1cc(Cl)cc(Oc2c(C(F)(F)F)ncn(Cc3cc(C#N)c(=O)[nH]n3)c2=O)c1 [Example 95, 6-((5-(3-chloro-5-cyanophenoxy)-6-oxo-4-(trifluoromethyl)pyrimidin-1(6H)-yl)methyl)-3-oxo-2,3-dihydropyridazine-4-carbonitrile] | 8
10 | CS(=O)(=O)c1cc(Cn2cnc(C(F)(F)F)c(Oc3cc(Cl)cc(C#N)c3)c2=O)n[nH]c1=O [Example 96, 3-chloro-5-((1-((5-(methylsulfonyl)-6-oxo-1,6-dihydropyridazin-3-yl)methyl)-6-oxo-4-(trifluoromethyl)-1,6-dihydropyrimidin-5-yl)oxy)benzonitrile] | 336
11 | CCS(=O)(=O)c1cc(Cn2cnc(C(F)(F)F)c(Oc3cc(Cl)cc(C#N)c3)c2=O)n[nH]c1=O [Example 97, 3-chloro-5-((1-((5-(ethylsulfonyl)-6-oxo-1,6-dihydropyridazin-3-yl)methyl)-6-oxo-4-(trifluoromethyl)-1,6-dihydropyrimidin-5-yl)oxy)benzonitrile] | 247
12 | N#Cc1cc(Cl)cc(Oc2c(C(F)(F)F)ncn(Cc3cc(-c4ccc(F)cn4)c(=O)[nH]n3)c2=O)c1 [Example 98, 3-chloro-5-((1-((5-(5-fluoropyridin-2-yl)-6-oxo-1,6-dihydropyridazin-3-yl)methyl)-6-oxo-4-(trifluoromethyl)-1,6-dihydropyrimidin-5-yl)oxy)benzonitrile] | 9
13 | N#Cc1cc(Cl)cc(Oc2c(C(F)(F)F)ncn(Cc3cc(-c4ccc(Cl)cn4)c(=O)[nH]n3)c2=O)c1 [Example 99, 3-chloro-5-((1-((5-(5-chloropyridin-2-yl)-6-oxo-1,6-dihydropyridazin-3-yl)methyl)-6-oxo-4-(trifluoromethyl)-1,6-dihydropyrimidin-5-yl)oxy)benzonitrile] | 7
14 | COC(=O)c1cc(Cn2cnc(C(F)(F)F)c(Oc3cc(Cl)cc(C#N)c3)c2=O)n[nH]c1=O [Example 100, methyl 6-((5-(3-chloro-5-cyanophenoxy)-6-oxo-4-(trifluoromethyl)pyrimidin-1(6H)-yl)methyl)-3-oxo-2,3-dihydropyridazine-4-carboxylate] | 23
15 | N#Cc1cc(Cl)cc(Oc2c(C(F)(F)F)ncn(Cc3cc(C(N)=O)c(=O)[nH]n3)c2=O)c1 [Example 101, 6-((5-(3-chloro-5-cyanophenoxy)-6-oxo-4-(trifluoromethyl)pyrimidin-1(6H)-yl)methyl)-3-oxo-2,3-dihydropyridazine-4-carboxamide] | 153
16 | N#Cc1cc(Cl)cc(Oc2c(C(F)(F)F)ncn(Cc3cc(C(F)F)c(=O)[nH]n3)c2=O)c1 [Example 102, 3-chloro-5-((1-((5-(difluoromethyl)-6-oxo-1,6-dihydropyridazin-3-yl)methyl)-6-oxo-4-(trifluoromethyl)-1,6-dihydropyrimidin-5-yl)oxy)benzonitrile] | 20
17 | N#Cc1cc(Cl)cc(Oc2c(C(F)(F)F)ncn(Cc3cc(C(O)C(F)(F)F)c(=O)[nH]n3)c2=O)c1 (stereo not drawn) [Example 103, 3-chloro-5-((6-oxo-1-((6-oxo-5-(2,2,2-trifluoro-1-hydroxyethyl)-1,6-dihydropyridazin-3-yl)methyl)-4-(trifluoromethyl)-1,6-dihydropyrimidin-5-yl)oxy)benzonitrile] | 74
18 | CC(=O)c1cc(Cn2cnc(C(F)(F)F)c(Oc3cc(Cl)cc(C#N)c3)c2=O)n[nH]c1=O [Example 105, 3-((1-((5-acetyl-6-oxo-1,6-dihydropyridazin-3-yl)methyl)-6-oxo-4-(trifluoromethyl)-1,6-dihydropyrimidin-5-yl)oxy)-5-chlorobenzonitrile] | 19
19 | COc1cc(Cn2cnc(C(F)(F)F)c(Oc3cc(Cl)cc(C#N)c3)c2=O)n[nH]c1=O [Example 106, 3-chloro-5-((1-((5-methoxy-6-oxo-1,6-dihydropyridazin-3-yl)methyl)-6-oxo-4-(trifluoromethyl)-1,6-dihydropyrimidin-5-yl)oxy)benzonitrile] | 12
20 | N#Cc1cc(Cl)cc(Oc2c(C(F)(F)F)ncn(Cc3cc(O)c(=O)[nH]n3)c2=O)c1 [Example 107, 3-chloro-5-((1-((5-hydroxy-6-oxo-1,6-dihydropyridazin-3-yl)methyl)-6-oxo-4-(trifluoromethyl)-1,6-dihydropyrimidin-5-yl)oxy)benzonitrile] | 223
21 | N#Cc1cc(Cl)cc(Oc2c(C(F)(F)F)ncn(Cc3cc(Oc4ccc(F)cc4)c(=O)[nH]n3)c2=O)c1 [Example 108, 3-chloro-5-((1-((5-(4-fluorophenoxy)-6-oxo-1,6-dihydropyridazin-3-yl)methyl)-6-oxo-4-(trifluoromethyl)-1,6-dihydropyrimidin-5-yl)oxy)benzonitrile] | 316
22 | N#Cc1cc(Cl)cc(Oc2c(C(F)(F)F)ncn(Cc3cc(OC(F)F)c(=O)[nH]n3)c2=O)c1 [Example 109, 3-chloro-5-((1-((5-(difluoromethoxy)-6-oxo-1,6-dihydropyridazin-3-yl)methyl)-6-oxo-4-(trifluoromethyl)-1,6-dihydropyrimidin-5-yl)oxy)benzonitrile] | 7
23 | Cn1cc(-c2cc(Cn3cnc(C(F)(F)F)c(Oc4cc(Cl)cc(C#N)c4)c3=O)c(=O)[nH]n2)cn1 [Example 111, 3-chloro-5-((1-((6-(1-methyl-1H-pyrazol-4-yl)-3-oxo-2,3-dihydropyridazin-4-yl)methyl)-6-oxo-4-(trifluoromethyl)-1,6-dihydropyrimidin-5-yl)oxy)benzonitrile] | 10
24 | N#Cc1cc(Cl)cc(Oc2c(C(F)(F)F)ncn(Cc3cc(-c4ccc(F)cc4)n[nH]c3=O)c2=O)c1 [Example 112, 3-chloro-5-((1-((6-(4-fluorophenyl)-3-oxo-2,3-dihydropyridazin-4-yl)methyl)-6-oxo-4-(trifluoromethyl)-1,6-dihydropyrimidin-5-yl)oxy)benzonitrile] | 5
25 | N#Cc1cc(Cl)cc(Oc2c(C(F)(F)F)ncn(Cc3cc(-c4cccc(F)c4)n[nH]c3=O)c2=O)c1 [Example 113, 3-chloro-5-((1-((6-(3-fluorophenyl)-3-oxo-2,3-dihydropyridazin-4-yl)methyl)-6-oxo-4-(trifluoromethyl)-1,6-dihydropyrimidin-5-yl)oxy)benzonitrile] | 6
26 | Cn1nccc1-c1cc(Cn2cnc(C(F)(F)F)c(Oc3cc(Cl)cc(C#N)c3)c2=O)c(=O)[nH]n1 [Example 114, 3-chloro-5-((1-((6-(1-methyl-1H-pyrazol-5-yl)-3-oxo-2,3-dihydropyridazin-4-yl)methyl)-6-oxo-4-(trifluoromethyl)-1,6-dihydropyrimidin-5-yl)oxy)benzonitrile] | 7
27 | N#Cc1cc(Cl)cc(Oc2c(C(F)(F)F)ncn(Cc3cc(-c4ccc(OC(F)F)cc4)n[nH]c3=O)c2=O)c1 [Example 115, 3-chloro-5-((1-((6-(4-(difluoromethoxy)phenyl)-3-oxo-2,3-dihydropyridazin-4-yl)methyl)-6-oxo-4-(trifluoromethyl)-1,6-dihydropyrimidin-5-yl)oxy)benzonitrile] | 7
